Starred links: 1 amine or outer side, 2 acyl side, 3 side chain; linkers in the order of their positions; H or OH if unused. Non-standard residues stand in square brackets, D forms with d. Residues, ends and D or L forms follow the SMILES beside them. *: point of attachment. Desaminohistidyl = O=C(CCc1c[nH]cn1)*; X1 = c1ccc(C(CCN*)c2ccccc2)cc1; NHPhenethyl = c1ccc(CCN*)cc1; X2 = O=C(C1CCCC1N[*:1])[*:2]; Isovaleryl = CC(C)CC(=O)*; NHBn = c1ccc(CN*)cc1

This note sets out measurements from ChEMBL document CHEMBL1135656, “Molecular docking and 3D-QSAR studies on gag peptide analogue inhibitors interacting with human cyclophilin A” (J Med Chem, 2002).

Peptidyl-prolyl cis-trans isomerase A, sequence (P62937 whole entry): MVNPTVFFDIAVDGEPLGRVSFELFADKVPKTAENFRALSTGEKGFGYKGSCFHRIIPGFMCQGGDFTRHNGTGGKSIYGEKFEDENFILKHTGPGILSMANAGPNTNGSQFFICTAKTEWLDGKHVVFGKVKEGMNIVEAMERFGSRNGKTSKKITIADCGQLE

The assay addresses Peptidyl-prolyl cis-trans isomerase A (Homo sapiens, UniProt P62937). The experiment in a line: In vitro inhibition of human Cyclophilin A/protein interaction.
The IC50 is the concentration at which inhibition is half-maximal. Higher therefore signals weaker potency in that assay. `CC(C)CC(=O)N[C@@H](Cc1cnc[nH]1)C(=O)N[C@@H](C)C(=O)NCC(=O)N1CCC[C@H]1C(=O)NC1CCCC1C(=O)NCc1ccccc1` (some centres undefined) (Isovaleryl-HAGP[X2]-NHBn): the midpoint of inhibition, the IC50, lay at 90 µM. To `CC[C@H](C)[C@H](NC(=O)[C@@H]1CCCN1C(=O)CNC(=O)[C@H](C)NC(=O)CCc1cnc[nH]1)C(=O)N[C@@H](C)C(N)=O` (Desaminohistidyl-AGPIA-NH2) belongs 2600 µM. To `CC(=O)N[C@H](C(=O)N[C@@H](Cc1c[nH]cn1)C(=O)N[C@@H](C)C(=O)NCC(=O)N1CCC[C@@H]1C(=O)N[C@@H](C(=O)N[C@@H](C)C(N)=O)c1ccccc1)C(C)C` belongs 820 µM; to `CC(=O)N[C@H](C(=O)N[C@@H](Cc1c[nH]cn1)C(=O)N[C@@H](C)C(=O)NCC(=O)N1CCC[C@@H]1C(=O)N[C@H](C(=O)N[C@@H](C)C(N)=O)c1ccccc1)C(C)C`, 970 µM; to `CC[C@H](C)[C@H](NC(=O)[C@@H]1CCCN1C(=O)CNC(=O)[C@H](C)NC(=O)[C@H](Cc1cnc[nH]1)NC(=O)[C@@H](NC(C)=O)C(C)C)C(=O)NCCC(c1ccccc1)c1ccccc1` (Ac-VHAGPI-X1), 365 µM. In the case of `CC[C@H](C)[C@H](NC(=O)[C@@H]1CCCN1C(=O)CNC(=O)[C@H](C)NC(=O)[C@H](Cc1c[nH]cn1)NC(=O)[C@@H](NC(C)=O)C(C)C)C(=O)NCCc1ccccc1` (Ac-VHAGPI-NHPhenethyl), the IC50 is 325 µM. To `CC[C@H](C)[C@H](NC(=O)[C@@H]1CCCN1C(=O)CNC(=O)[C@H](C)NC(=O)[C@H](Cc1cnc[nH]1)NC(=O)CC(C)C)C(=O)N[C@@H](C)C(N)=O` (Isovaleryl-HAGPIA-NH2) belongs 165 µM; to `CC(=O)N[C@H](C(=O)N[C@@H](Cc1c[nH]cn1)C(=O)N[C@@H](C)C(=O)NCC(=O)N1CCC[C@H]1C(=O)NC1CCCC1C(=O)N[C@@H](C)C(N)=O)C(C)C` (some centres undefined) (Ac-VHAGP[X2]A-NH2), 680 µM. For H-HAGPIA-OH, inhibition was half-maximal at 2000 µM (IC50). This IC50 lies about 2.9-fold higher than the previous one.
